IC50 data for 29 compounds are collected here from patent US8614201B2 (Janssen Pharmaceutica NV, priority 2009, dated 2013).

The experiment has as its target Human TRPA1 (Homo sapiens, UniProt O75762). Description: Assay 1: In vitro cellular testing of TRPA1 modulation (CHO-TREx, Fluo-3 calcium fluorescence, AITC agonist). The format is cell-based. On the set-up: expressed in transfected cells; host or cells: CHO-TREx cells (Invitrogen), vector pcDNA4/TO. Particulars: CHO-TREx cells expressing human TRPA1; Fluo-3 fluorescence (FLIPR/Tetra); agonist 15 μM allyl isothiocyanate (AITC); 30 minute antagonist incubation. A digest of the protocol:
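Antagonist potency is the 50% reduction of the AITC (15 μM) calcium response, Hill-fitted against no-antagonist and 10 μM ruthenium red controls. Fluo-3-loaded (4 μM) CHO-TREx cells with tetracycline-inducible human TRPA1 got compound in HEPES saline pH 7.4 for 30 min, usually from 10 μM in three-fold dilutions.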

Human TRPA1, sequence (O75762 whole entry): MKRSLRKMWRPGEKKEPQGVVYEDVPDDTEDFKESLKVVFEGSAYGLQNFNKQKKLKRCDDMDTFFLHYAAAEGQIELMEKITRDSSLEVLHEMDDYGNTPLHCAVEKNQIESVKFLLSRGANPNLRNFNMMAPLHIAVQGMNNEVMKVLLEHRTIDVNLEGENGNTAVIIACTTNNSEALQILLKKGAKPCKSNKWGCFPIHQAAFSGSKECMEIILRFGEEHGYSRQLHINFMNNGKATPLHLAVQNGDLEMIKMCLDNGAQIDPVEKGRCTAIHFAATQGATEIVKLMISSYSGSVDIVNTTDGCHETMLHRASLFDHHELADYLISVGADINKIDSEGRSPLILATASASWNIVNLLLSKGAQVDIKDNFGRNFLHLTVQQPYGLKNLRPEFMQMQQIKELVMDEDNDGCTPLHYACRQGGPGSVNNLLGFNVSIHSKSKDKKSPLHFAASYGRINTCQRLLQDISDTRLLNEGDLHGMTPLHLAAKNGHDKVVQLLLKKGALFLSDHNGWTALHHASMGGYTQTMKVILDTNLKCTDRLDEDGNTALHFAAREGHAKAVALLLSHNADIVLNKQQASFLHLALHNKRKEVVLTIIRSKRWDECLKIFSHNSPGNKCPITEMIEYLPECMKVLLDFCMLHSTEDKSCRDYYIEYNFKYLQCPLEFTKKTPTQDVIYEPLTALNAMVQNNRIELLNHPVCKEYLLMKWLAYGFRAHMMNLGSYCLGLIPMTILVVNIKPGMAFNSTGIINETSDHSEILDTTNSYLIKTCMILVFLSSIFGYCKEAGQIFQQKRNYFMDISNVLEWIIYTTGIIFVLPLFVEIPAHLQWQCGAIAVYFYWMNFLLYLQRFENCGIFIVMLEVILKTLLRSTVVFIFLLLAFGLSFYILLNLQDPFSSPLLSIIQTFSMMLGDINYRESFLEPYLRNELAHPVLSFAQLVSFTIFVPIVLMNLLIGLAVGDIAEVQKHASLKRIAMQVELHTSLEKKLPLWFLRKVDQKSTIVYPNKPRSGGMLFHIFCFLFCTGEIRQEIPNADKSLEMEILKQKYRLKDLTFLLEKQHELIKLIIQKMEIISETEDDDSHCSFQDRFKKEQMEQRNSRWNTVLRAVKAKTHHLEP

For orientation: IC50 means the point on the concentration scale where inhibition reaches its midpoint. As to `CC(C)CN1CCN(c2nc(CNC(=O)[C@@H]3CC(F)(F)CN3S(=O)(=O)c3ccc(Cl)s3)cc(-c3ccc(C(F)(F)F)cc3)n2)CC1` [Example 57, 1-(5-Chloro-thiophene-2-sulfonyl)-4,4-difluoro-pyrrolidine-2S-carboxylic acid [2-(4-isobutyl-piperazin-1-yl)-6-(4-trifluoromethyl-phenyl)-pyrimidin-4-ylmethyl]-amide], the IC50 amounted to 194 nM.

Take `O=C(NCc1cc(-c2ccc(C(F)(F)F)cc2)nc(OCC(F)(F)F)n1)[C@@H]1CCCN1S(=O)(=O)c1ccc(Cl)s1` [Example 58, 1-(5-Chloro-thiophene-2-sulfonyl)-pyrrolidine-2S-carboxylic acid [2-(2,2,2-trifluoro-ethoxy)-6-(4-trifluoromethyl-phenyl)-pyrimidin-4-ylmethyl]-amide]: the IC50 is 5 nM.

As for `CN(C)c1nc(CNC(=O)[C@@H]2CC(F)(F)CN2S(=O)(=O)c2ccc(Cl)s2)cc(-c2ccc(C(F)(F)F)cc2)n1` [Example 59], the 50% inhibitory concentration (IC50) was 81 nM.

`CC1CCCN1c1nc(CNC(=O)[C@@H]2CC(F)(F)CN2S(=O)(=O)c2ccc(Cl)s2)cc(-c2ccc(C(F)(F)F)cc2)n1` (stereo partly drawn) [Example 60, 1-(5-Chloro-thiophene-2-sulfonyl)-4,4-difluoro-pyrrolidine-2S-carboxylic acid [2-(2-methyl-pyrrolidin-1-yl)-6-(4-trifluoromethyl-phenyl)-pyrimidin-4-ylmethyl]-amide]: the IC50 is 6170 nM.

For the compound `O=C(NCc1cc(-c2ccc(C(F)(F)F)cc2)nc(OCC(F)(F)F)n1)[C@@H]1CC(F)(F)CN1S(=O)(=O)c1ccc(Cl)s1` [Example 61, 1-(5-Chloro-thiophene-2-sulfonyl)-4,4-difluoro-pyrrolidine-2S-carboxylic acid [2-(2,2,2-trifluoro-ethoxy)-6-(4-trifluoromethyl-phenyl)-pyrimidin-4-ylmethyl]-amide], the IC50 came out at 105 nM.

With `O=C(NCc1cc(-c2ccc(C(F)(F)F)cc2)nc(OCCN2CCCC2)n1)[C@@H]1CCCN1S(=O)(=O)c1ccc(Cl)s1` [Example 62, 1-(5-Chloro-thiophene-2-sulfonyl)-pyrrolidine-2S-carboxylic acid [2-(2-pyrrolidin-1-yl-ethoxy)-6-(4-trifluoromethyl-phenyl)-pyrimidin-4-ylmethyl]-amide], the IC50 was 3210 nM.

For the compound `O=C(NCc1cc(-c2ccc(C(F)(F)F)cc2)nc(OCCN2CCCCC2)n1)[C@@H]1CCCN1S(=O)(=O)c1ccc(Cl)s1` [Example 63, 1-(5-Chloro-thiophene-2-sulfonyl)-pyrrolidine-2S-carboxylic acid [2-(2-piperidin-1-yl-ethoxy)-6-(4-trifluoromethyl-phenyl)-pyrimidin-4-ylmethyl]-amide], the IC50 came to 78 nM.

As for `O=C(NCc1cc(-c2ccc(C(F)(F)F)cc2)nc(OCCN2CCOCC2)n1)[C@@H]1CCCN1S(=O)(=O)c1ccc(Cl)s1` [Example 64, 1-(5-Chloro-thiophene-2-sulfonyl)-pyrrolidine-2S-carboxylic acid [2-(2-morpholin-4-yl-ethoxy)-6-(4-trifluoromethyl-phenyl)-pyrimidin-4-ylmethyl]-amide], the IC50 was 234 nM.

With `O=C(NCc1cccc(-c2ccc(C(F)(F)F)cc2)c1)[C@@H]1CCCN1S(=O)(=O)c1ccc(F)cc1` [Example 65, 1-(4-Fluorobenzenesulfonyl)-pyrrolidine-2S-carboxylic acid (4′-trifluoromethylbiphenyl-3-ylmethyl)-amide], the IC50 turned out to be 15 nM.

With `O=C(NCc1cccc(-c2cccc(C(F)(F)F)c2)c1)[C@@H]1CCCN1S(=O)(=O)c1ccc(F)cc1` [Example 66, 1-(4-Fluorobenzenesulfonyl)-pyrrolidine-2S-carboxylic acid (3′-trifluoromethylbiphenyl-3-ylmethyl)-amide], the IC50 is 253 nM.

Consider `O=C(NCc1cccc(-c2ccccc2C(F)(F)F)c1)[C@@H]1CCCN1S(=O)(=O)c1ccc(F)cc1` [Example 67, 1-(4-Fluorobenzenesulfonyl)-pyrrolidine-2S-carboxylic acid (2′-trifluoromethylbiphenyl-3-ylmethyl)-amide], for which the IC50 worked out at 515 nM.

On to `O=C(NCc1cccc(-c2ccc(OC(F)(F)F)cc2)c1)[C@@H]1CCCN1S(=O)(=O)c1ccc(F)cc1` [Example 68, 1-(4-Fluorobenzenesulfonyl)-pyrrolidine-2S-carboxylic acid (4′-trifluoromethoxybiphenyl-3-ylmethyl)-amide], for which the IC50 amounted to 26 nM.

With `O=C(NCc1cccc(-c2cccc(OC(F)(F)F)c2)c1)[C@@H]1CCCN1S(=O)(=O)c1ccc(F)cc1` [Example 69, 1-(4-Fluorobenzenesulfonyl)-pyrrolidine-2S-carboxylic acid (3′-trifluoromethoxybiphenyl-3-ylmethyl)-amide], the IC50 came to 181 nM.

For the compound `O=C(NCc1cccc(-c2ccccc2OC(F)(F)F)c1)[C@@H]1CCCN1S(=O)(=O)c1ccc(F)cc1` [Example 70, 1-(4-Fluorobenzenesulfonyl)-pyrrolidine-2S-carboxylic acid (2′-trifluoromethoxybiphenyl-3-ylmethyl)-amide], the IC50 was determined as 746 nM.

`O=C(NCc1cccc(-c2ccc(C(F)(F)F)c(F)c2)c1)[C@@H]1CCCN1S(=O)(=O)c1ccc(F)cc1` [Example 71, 1-(4-Fluorobenzenesulfonyl)-pyrrolidine-2S-carboxylic acid (3′-fluoro-4′-trifluoromethylbiphenyl-3-ylmethyl)-amide]: the IC50 amounted to 14 nM.

As to `O=C(NCc1cccc(-c2ccc(C(F)(F)F)c(Cl)c2)c1)[C@@H]1CCCN1S(=O)(=O)c1ccc(F)cc1` [Example 72, 1-(4-Fluoro-benzenesulfonyl)-pyrrolidine-2S-carboxylic acid (3′-chloro-4′-trifluoromethyl-biphenyl-3-ylmethyl)-amide], the IC50 is 17 nM.

`O=C(NCc1cccc(-c2ccc(OC(F)(F)F)c(F)c2)c1)[C@@H]1CCCN1S(=O)(=O)c1ccc(F)cc1` [Example 73, 1-(4-Fluorobenzenesulfonyl)-pyrrolidine-2S-carboxylic acid (3′-fluoro-4′-trifluoromethoxybiphenyl-3-ylmethyl)-amide]: the IC50 amounted to 4 nM.

As to `O=C(NCc1cccc(-c2cc(F)c(OC(F)F)c(F)c2)c1)[C@@H]1CCCN1S(=O)(=O)c1ccc(F)cc1` [Example 74, 1-(4-Fluorobenzenesulfonyl)-pyrrolidine-2S-carboxylic acid (4′-difluoromethoxy-3′,5′-difluorobiphenyl-3-ylmethyl)-amide], the IC50 came to 17 nM.

With `CS(=O)(=O)c1ccc(-c2cccc(CNC(=O)[C@@H]3CCCN3S(=O)(=O)c3ccc(F)cc3)c2)cc1` [Example 75, 1-(4-Fluorobenzenesulfonyl)-pyrrolidine-2S-carboxylic acid (4′-methanesulfonylbiphenyl-3-ylmethyl)-amide], the IC50 was 771 nM.

Turning to `O=C(NCc1cccc(-c2ccc([N+](=O)[O-])cc2)c1)[C@@H]1CCCN1S(=O)(=O)c1ccc(F)cc1` [Example 76, 1-(4-Fluorobenzenesulfonyl)-pyrrolidine-2S-carboxylic acid (4′-nitrobiphenyl-3-ylmethyl)-amide], the IC50 was determined as 24 nM.

With `O=C(NCc1cccc(-c2ccc(Br)cc2)c1)[C@@H]1CCCN1S(=O)(=O)c1ccc(F)cc1` [Example 77, 1-(4-Fluoro-benzenesulfonyl)-pyrrolidine-2S-carboxylic acid (4′-bromo-biphenyl-3-ylmethyl)-amide], the IC50 stood at 59 nM.

Take `NS(=O)(=O)c1ccc(-c2cccc(CNC(=O)[C@@H]3CCCN3S(=O)(=O)c3ccc(F)cc3)c2)cc1` [Example 78, 1-(4-Fluorobenzenesulfonyl)-pyrrolidine-2S-carboxylic acid (4′-sulfamoyl-biphenyl-3-ylmethyl)-amide]: the IC50 amounted to 6050 nM.

For `Cc1ccc(-c2cccc(CNC(=O)[C@@H]3CCCN3S(=O)(=O)c3ccc(F)cc3)c2)cc1` [Example 79, 1-(4-Fluoro-benzenesulfonyl)-pyrrolidine-2S-carboxylic acid (4′-methyl-biphenyl-3-ylmethyl)-amide], the IC50 is 137 nM.

Turning to `COc1ccc(-c2cccc(CNC(=O)[C@@H]3CCCN3S(=O)(=O)c3ccc(F)cc3)c2)cc1` [Example 80, 1-(4-Fluorobenzenesulfonyl)-pyrrolidine-2S-carboxylic acid (4′-methoxybiphenyl-3-ylmethyl)-amide], the IC50 is 410 nM.

In the case of `O=C(NCc1cccc(-c2ccc(OCC(F)(F)F)cc2)c1)[C@@H]1CCCN1S(=O)(=O)c1ccc(F)cc1` [Example 81, 1-(4-Fluorobenzenesulfonyl)-pyrrolidine-2S-carboxylic acid [4′-(2,2,2-trifluoroethoxy)-biphenyl-3-ylmethyl]-amide], the IC50 amounted to 93 nM.

As to `CSc1ccc(-c2cccc(CNC(=O)[C@@H]3CCCN3S(=O)(=O)c3ccc(F)cc3)c2)cc1` [Example 82, 1-(4-Fluoro-benzenesulfonyl)-pyrrolidine-2S-carboxylic acid (4′-methylsulfanyl-biphenyl-3-ylmethyl)-amide], the IC50 stood at 50 nM.

As to `O=C(NCc1cccc(-c2ccc(Cl)nc2)c1)[C@@H]1CCCN1S(=O)(=O)c1ccc(F)cc1` [Example 83, 1-(4-Fluoro-benzenesulfonyl)-pyrrolidine-2S-carboxylic acid 3-(6-chloro-pyridin-3-yl)-benzylamide], the IC50 is 73 nM.

Consider `COc1ccc(-c2cccc(CNC(=O)[C@@H]3CCCN3S(=O)(=O)c3ccc(F)cc3)c2)cn1` [Example 84, 1-(4-Fluorobenzenesulfonyl)-pyrrolidine-2S-carboxylic acid 3-(6-methoxypyridin-3-yl)-benzylamide], for which the IC50 is 340 nM.

With `NC(=O)c1ccc(-c2cccc(CNC(=O)[C@@H]3CCCN3S(=O)(=O)c3ccc(F)cc3)c2)cc1` [Example 85, 1-(4-Fluorobenzenesulfonyl)-pyrrolidine-2S-carboxylic acid (4′-carbamoylbiphenyl-3-ylmethyl)-amide], the IC50 worked out at 14100 nM.
